Measured values as given in patent US20100292222A1, “CHEMICAL COMPOUNDS 751” (ASTRAZENECA AB, priority 2009, published 2010).

Biological target: T1, Androgen Receptor (AR) (Homo sapiens, UniProt P10275, T878A)
T1 construct: cell based immuno-fluorescence assay using the LNCaP prostate epithelial cell line; host or cells: LNCaP clone FGC prostate carcinoma cells
T1 sequence (P10275 1-920 T878A): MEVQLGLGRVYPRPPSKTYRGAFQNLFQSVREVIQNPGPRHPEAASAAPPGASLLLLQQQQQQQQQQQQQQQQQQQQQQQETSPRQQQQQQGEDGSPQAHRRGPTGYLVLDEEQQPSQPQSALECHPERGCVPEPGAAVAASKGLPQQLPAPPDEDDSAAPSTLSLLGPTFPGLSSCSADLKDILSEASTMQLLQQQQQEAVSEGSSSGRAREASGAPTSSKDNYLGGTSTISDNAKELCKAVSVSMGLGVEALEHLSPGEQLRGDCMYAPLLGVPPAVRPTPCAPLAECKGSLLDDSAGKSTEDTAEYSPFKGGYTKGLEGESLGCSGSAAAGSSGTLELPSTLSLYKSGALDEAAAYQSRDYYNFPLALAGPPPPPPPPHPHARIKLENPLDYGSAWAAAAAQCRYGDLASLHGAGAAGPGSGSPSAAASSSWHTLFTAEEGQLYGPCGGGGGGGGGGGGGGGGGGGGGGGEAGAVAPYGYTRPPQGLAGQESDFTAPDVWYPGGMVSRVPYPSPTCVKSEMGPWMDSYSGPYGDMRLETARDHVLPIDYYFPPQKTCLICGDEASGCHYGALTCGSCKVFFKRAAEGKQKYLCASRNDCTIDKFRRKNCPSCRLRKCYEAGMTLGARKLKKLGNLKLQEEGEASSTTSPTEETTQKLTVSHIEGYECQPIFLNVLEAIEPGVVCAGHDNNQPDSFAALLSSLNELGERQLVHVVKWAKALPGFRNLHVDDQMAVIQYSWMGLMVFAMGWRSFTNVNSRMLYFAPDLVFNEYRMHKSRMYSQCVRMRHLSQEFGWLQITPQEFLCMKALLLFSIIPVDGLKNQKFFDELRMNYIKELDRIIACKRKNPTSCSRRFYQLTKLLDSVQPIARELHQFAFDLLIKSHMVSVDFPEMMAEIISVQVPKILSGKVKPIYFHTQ
Test: LNCaP Androgen Receptor Down-Regulation Cell Assay
Format: cell-based
Settings: LNCaP prostate carcinoma cell line; 20-22 hours incubation; immunofluorescence; 50% reduction of the AR signal
Experimental: The ability of compounds to reduce Androgen Receptor (AR) numbers was assessed in a cell based immuno-fluorescence assay using the LNCaP prostate epithelial cell line.
This immunofluorescence end point assay measures the ability of a test compound to down-regulate and reduce measured levels of the AR in the LNCaP prostate carcinoma cell line (LNCaP clone FGC (CRL-1740) obtained from the American Type Culture Collection (ATCC)).
LNCaP cells were cultured in Growth Medium (phenol red free Roswell Park Memorial Institute (RPMI) 1640 (Invitrogen Code no. 11835-063) containing 2 mM L-Glutamine (Invitrogen Code no. 25030-024) and 1% (v/v) Penicillin/Streptomycin (10000 units/ml Penicillin and 10000 μg/ml of Streptomycin utilising penicillin G (sodium salt) and streptomycin sulphate: prepared in normal saline, Invitrogen Code no. 15140122) and 10% (v/v) foetal bovine serum (FBS)) in a 5% CO2 air incubator at 37° C. Cells for assay were harvested from T175 stock flasks by washing once in PBS (phosphate buffered saline, pH 7.4) (Invitrogen Code no. 14190-094) and harvested using 5 mls of 1× Trypsin/ethylaminediaminetetraacetic acid (EDTA) (10× Trypsin-EDTA, 5.0 g/L Trypsin, 2.0 g/L of EDTA•4Na and 8.5 g/L of NaCl, without Phenol Red, Invitrogen Code no. 15400-054) diluted in PBS solution. A 5 ml volume of Growth Medium was added to each flask (as above except that 5% (v/v) charcoal stripped FBS (HyClone Code no. SH30068.03) was included instead of 10% (v/v) FBS). Cells were syringed at least twice using a sterile 18G×1.5″ (1.2×40 mm) broad gauge needle and cell density was measured using a haemocytometer. Cells were further diluted in Growth Medium plus 5% (v/v) charcoal stripped FBS and seeded at a density of 6.5×10^3 cells per well (in 90 ul) into transparent, black, tissue culture treated 96 well plates (Packard, No. 6005182).
Test data reported herein was generated using two different compounds preparation and dosing methods. In method (1) a 10 mM compound stock solution in 100% (v/v) DMSO was serially diluted in 4-fold steps in 100% (v/v) DMSO using a Thermo Scientific Matrix SerialMate. The diluted compounds were then further diluted 1 in 30 in assay media using a Thermo Scientific Matrix PlateMate and a 10 μl aliquot of this dilution was dosed to cells manually using a multi-channel pipette. In method (2) starting with a 10 mM compound stock solution, the Labcyte Echo 550 was used to generate a compound concentration response set diluted in 30 μl of assay media. The Echo 550 is a liquid handler that uses acoustic technology to perform direct microplate-to-microplate transfers of DMSO compound solutions. The system can be programmed to transfer volumes as low as […] in multiple increments between microplates and in so doing generates a serial dilution of compound which is then back-filled to normalise the DMSO is concentration across the dilution range. A 10 μl volume of diluted compound is then dosed to cells using a Thermo Scientific Matrix PlateMate.
Plates were incubated overnight at 37° C., 5% CO2. Wells were then dosed with compound prepared by one of the 2 methods above and further incubated for 20-22 hours at 37° C., 5% CO2. Plates were fixed by the addition of 20 μl of 10% (v/v) formaldehyde solution (in PBS) to each well (final formaldehyde conc.=1.67% (v/v)) and left at room temperature for 10 mins. This fixative solution was removed and cells were washed with 250 μl of PBS/0.05% (v/v) Tween 20 (PBST) using an automated plate washer. This process was then repeated twice more.
Immunostaining was performed at room temperature. Cells were permeabilised by the addition of 35 μl of PBS containing 0.5% Tween 20 and incubated for 1 hour at room temperature. Permeabilisation solution was removed and cells were washed with 250 μl of PBST using an automated plate washer. This process was then repeated twice more. […]

IC50 [nM]	Compound
84	CC(=O)N1CCN([C@H](C)COc2ccc(C3(O)CCN(c4ccc5nnc(C(F)(F)F)n5n4)CC3)cc2)CC1 (single isomer, unassigned) [Example 43, 4-{4-[2-(4-acetylpiperazin-1-yl)propoxy]phenyl}-1-[3-(trifluoromethyl)[1,2,4]triazolo[4,3-b]pyridazin-6-yl]piperidin-4-ol]
36	CC(=O)N1CCN([C@H](C)COc2ccc(C3(O)CCN(c4ccc5nnc(C(F)(F)F)n5n4)CC3)cc2)CC1 (single isomer, unassigned) [Example 44, 4-{4-[2-(4-acetylpiperazin-1-yl)propoxy]phenyl}-1-[3-(trifluoromethyl)[1,2,4]triazolo[4,3-b]pyridazin-6-yl]piperidin-4-ol]
82	CC(=O)N1CCCN([C@H](C)COc2ccc(C3(O)CCN(c4ccc5nnc(C(F)(F)F)n5n4)CC3)cc2)CC1 (single isomer, unassigned) [Example 45, 4-{4-[2-(4-acetyl-1,4-diazepan-1-yl)propoxy]phenyl}-1-[3-(trifluoromethyl)[1,2,4]triazolo[4,3-b]pyridazin-6-yl]piperidin-4-ol]
18	CC(=O)N1CCCN([C@H](C)COc2ccc(C3(O)CCN(c4ccc5nnc(C(F)(F)F)n5n4)CC3)cc2)CC1 (single isomer, unassigned) [Example 46, 4-{4-[2-(4-acetyl-1,4-diazepan-1-yl)propoxy]phenyl}-1-[3-(trifluoromethyl)[1,2,4]triazolo[4,3-b]pyridazin-6-yl]piperidin-4-ol]
1500	CC(=O)N1CCN(CCCOc2ccc(N3CCN(c4ccc5nnc(C(F)(F)F)n5n4)CC3)cc2)CC1 [Example 1.1, 6-(4-{4-[3-(4-acetylpiperazin-1-yl)propoxy]phenyl}piperazin-1-yl)-3-(trifluoromethyl)[1,2,4]-triazolo[4,3-b]pyridazine]
360	CN1CCN(CCOc2ccc(C3(O)CCN(c4ccc5nnc(C(F)(F)F)n5n4)CC3)cc2)CC1=O [Example 3, 4-[2-(4-[4-hydroxy-1-[3-(trifluoromethyl)[1,2,4]-triazolo[4,3-b]pyridazin-6-yl]piperidin-4-yl]phenoxy)ethyl]-1-methylpiperazin-2-one]
5700	CN1CCN(CCOc2ccc(N3CCN(c4ccc5nnc(C(F)(F)F)n5n4)CC3)cc2)CC1=O [Example 4, 1-methyl-4-[2-(4-{4-[3-(trifluoromethyl)[1,2,4]triazolo[4,3-b]pyridazin-6-yl]piperazin-1-yl}phenoxy)ethyl]piperazin-2-one]
7800	O=C1CN(CCOc2ccc(N3CCN(c4ccc5nnc(C(F)(F)F)n5n4)CC3)cc2)CCN1C1CC1 [Example 5, 1-cyclopropyl-4-[2-(4-{4-[3-(trifluoromethyl)[1,2,4]-triazolo[4,3-b]pyridazin-6-yl]piperazin-1-yl}phenoxy)ethyl]piperazin-2-one]
510	O=C1CN(CCOc2ccc(C3CCN(c4ccc5nnc(C(F)(F)F)n5n4)CC3)cc2)CCN1C1CC1 [Example 6, 1-cyclopropyl-4-[2-(4-{1-[3-(trifluoromethyl)[1,2,4]-triazolo[4,3-b]pyridazin-6-yl]piperidin-4-yl}phenoxy)ethyl]piperazin-2-one]
6500	CN1CCN(CCOc2ccc(N3CCN(c4ccc5nnc(C(F)(F)F)n5n4)CC3)cc2)C(=O)C1 [Example 7, 4-methyl-1-[2-(4-{4-[3-(trifluoromethyl)[1,2,4]-triazolo[4,3-b]pyridazin-6-yl]piperazin-1-yl}phenoxy)ethyl]piperazin-2-one]
300	CN1CCN(CCCOc2ccc(C3CCN(c4ccc5nnc(C(F)(F)F)n5n4)CC3)cc2)CC1=O [Example 9, 1-methyl-4-[3-(4-{1-[3-(trifluoromethyl)[1,2,4]triazolo[4,3-b]pyridazin-6-yl]piperidin-4-yl}phenoxy)propyl]piperazin-2-one]
410	O=C1CN(CCCOc2ccc(C3CCN(c4ccc5nnc(C(F)(F)F)n5n4)CC3)cc2)CCN1C1CC1 [Example 10, 1-cyclopropyl-4-[3-(4-{1-[3-(trifluoromethyl)[1,2,4]triazolo[4,3-b]pyridazin-6-yl]piperidin-4-yl}phenoxy)propyl]piperazin-2-one]
1600	CN1CCN(CCOc2ccc(C3CCN(c4ccc5nnc(C(F)(F)F)n5n4)CC3)cn2)CC1=O [Example 11, 1-methyl-4-{2-[(5-{1-[3-(trifluoromethyl)[1,2,4]triazolo[4,3-b]pyridazin-6-yl]piperidin-4-yl}pyridin-2-yl)oxy]ethyl}piperazin-2-one]
670	CN1CCN(CCOc2ccc(C3(O)CCN(c4ccc5nnc(C(F)(F)F)n5n4)CC3)cc2F)CC1=O [Example 12, 4-[2-(2-fluoro-4-{4-hydroxy-1-[3-(trifluoromethyl)[1,2,4]triazolo[4,3-b]pyridazin-6-yl]piperidin-4-yl}phenoxy)ethyl]-1-methylpiperazin-2-one]
310	CN1CCN(CCOc2ccc(C3CCN(c4ccc5nnc(C(F)(F)F)n5n4)CC3)cc2F)CC1=O [Example 13, 4-[2-(2-fluoro-4-{1-[3-(trifluoromethyl)[1,2,4]triazolo[4,3-b]pyridazin-6-yl]piperidin-4-yl}phenoxy)ethyl]-1-methylpiperazin-2-one]
160	CC(=O)N1CCCN(CCOc2ccc(C3CCN(c4ccc5nnc(C(F)(F)F)n5n4)CC3)cc2)CC1 [Example 14, 6-(4-{4-[2-(4-acetyl-1,4-diazepan-1-yl)ethoxy]phenyl}piperidin-1-yl)-3-(trifluoromethyl)[1,2,4]-triazolo[4,3-b]pyridazine]

Compound	IC50 [nM]
CN1CCN(CCOc2ccc(C3CCN(c4ccc5nnc(C(F)(F)F)n5n4)CC3)cc2)CC1=O [Example 2, 1-methyl-4-[2-(4-{1-[3-(trifluoromethyl)[1,2,4]-triazolo[4,3-b]pyridazin-6-yl]piperidin-4-yl}phenoxy)ethyl]piperazin-2-one]	310
CN1CCN(CCOc2ccc(C3CCN(c4ccc5nnc(C(F)(F)F)n5n4)CC3)cc2)C(=O)C1 [Example 8, 4-methyl-1-[2-(4-{1-[3-(trifluoromethyl)[1,2,4]triazolo[4,3-b]pyridazin-6-yl]piperidin-4-yl}phenoxy)ethyl]piperazin-2-one]	1000
